Measurements: PMC11256303 (ACS Omega, 2024)

target: α-amylase; assay: in vitro α-amylase inhibition; assay type: biochemical; settings: read-out: alpha-amylase IC50 ± SEM, standard acarbose

Row | IC50 | SMILES
1 | 0.8 ± 0.05 µM | FC(F)(F)c1cccc(Nc2nc(/N=C/c3ccc(Cl)cc3Cl)ns2)c1 [Compound 15, (E)-3-((2,4-dichlorobenzylidene)amino)-N-(3-(trifluoromethyl)phenyl)-1,2,4-thiadiazol-5-amine]
2 | 16.2 ± 0.3 µM | COc1ccccc1/C=N\c1nsc(Nc2ccc(Cl)c(Cl)c2)n1 [Compound 8]
3 | 20.1 ± 0.4 µM | Clc1ccc(Nc2nc(/N=C\c3ccc(Br)cc3)ns2)cc1Cl [Compound 7]
4 | 1.9 ± 0.1 µM | Clc1ccc(/C=N\c2nsc(Nc3ccc(Cl)c(Cl)c3)n2)cc1Cl [Compound 6]
5 | 15.3 ± 0.3 µM | Cc1ccc(/C=N\c2nsc(Nc3ccc(Cl)c(Cl)c3)n2)cc1 [Compound 4]
6 | 17.7 ± 0.3 µM | COc1cccc(/C=N\c2nsc(Nc3ccc(Cl)c(Cl)c3)n2)c1 [Compound 5]
7 | 1.5 ± 0.1 µM | FC(F)(F)c1cccc(Nc2nc(/N=C\c3ccc(Cl)cc3)ns2)c1 [Compound 13]
